Laboratory results published in US11633370B2, “Use of scavengers of reactive gamma-ketoaldehydes to extend cell lifespan and healthspan” (Vanderbilt University, priority 2016, dated 2023).

Experiments:
mice = conditions: administering SA in mice; cited from earlier work
[1] = tested on: RB981 [F19F10.5(ok888) V]; test: Longevity assay, ets-7 gene knock-out strain; type: in vivo, C. elegans; conditions: 500 μM SA; 0 μM SA 16 days; p>0.05
Text: First, to validate the microarray results, the present inventors performed real-time RT-PCR on four genes, siah-1, sma-4, F13D12.6, and ets-7 (FIG. 6B). […] Messenger RNA levels for siah-1 and sma-4 were decreased by nearly 25%, as well as F13D12.6 and ets-7 were increased by nearly 25% by SA administration (p<0.05). Pathway Analysis using Gene Ontology (GO) with WEB-based Gene SeT Analysis Toolkit (WEBGESTALT <http://bioinfo.vanderbilt.edu/webgestalt/>) highlighted the metabolic process, lipid metabolic process, proteolysis pathways among many others as being altered favorably by the administration of SA (see Supplemental Data). From the array data confirmed by RT-PCR, the present inventors identified the ETS class transcription factor ETS-7 as a protein of interest. […] In order to test this, the present inventors carried out real-time RT-PCR quantification of ets-7 in non-functional SIR-2.1 mutant nematodes treated with increasing doses of SA (FIG. 6E). […]
Survival cultures were grown on 60-mm agar plates; after the late-stage L4/young adult molt, approximately 100 adults were transferred onto SA-OP50-seeded NGM plates. […] Worms were maintained at 20° C. and live worms were counted during transfer to freshly made SA-OP50-NGM agar plates every 2-3 days. Survival was scored as movement upon slight touch with the platinum wire. […]

VC199 SIR-2.1 mutants = test: mtDNA copy number by qPCR, VC199; type: in vivo, C. elegans; conditions: with age or with SA treatment
Text: Mitochondria lie at the center of aging biology, playing crucial roles in energy production, carbon substrate metabolism, apoptosis regulation, and redox balance and signaling. Since sirtuins play a major role in regulating mitochondrial function, the present inventors next wanted to investigate whether SA was exerting any of its effects via protection of mitochondrial processes. To investigate SA's effects on mitochondrial respiration, the present inventors administered SA to WT N2 (FIG. 5A) and non-functional SIR-2.1 mutant worms (FIG. 5B) and measured oxygen consumption rate (OCR) in whole worms over several days. […] The present inventors also examined the effect of SA treatment on mitochondrial DNA (mtDNA) integrity.
Relative mitochondrial and nuclear copy number were measured by quantitative, real-time PCR [90]. Primers for NADH dehydrogenase unit 1 (nd1) and a 164 bp region of the cox-4 gene were used in determination of mtDNA copy number. The nd1 forward primer 5′-[…]-3′ and reverse primer 5′-[…]-3′. Cox-4 forward primer 5′-GCCGACTGGAAGAACTTGTC-3′ and reverse primer 5′-[…]-3′. […] Amplified products were detected with SYBR Green (iQ™ SYBR® Green Supermix, Bio-Rad) and fluorescent signal intensities were determined by CFX96 Touch™ Real-Time PCR Detection System (Bio-Rad) by software CFX Manager™ (version 3.1). […]

[2] = compared with pyridoxamine (PM); cited from earlier work

Structure (SMILES): NCc1ccccc1O [SA, salicylamine]
- age-related loss of working memory (mice): prevents the age-related loss of working memory
- median lifespan [1]: 15 days
- mtDNA copy number relative to nuclear DNA (VC199 SIR-2.1 mutants): no significant difference
- potency and selectivity for scavenging isoketals [2]: similarly potent and as selective as PM
